# Tests used:
# Plasma = test: Antioxidant activity in human plasma assessed as inhibition of cholesteryl ester hydroperoxide formation after 60 mins relative to control; type: functional
# [1] = Antioxidant activity assessed as oxygen radical scavenging activity in presence of human plasma by ORAC method relative to control; type: functional, cell-free
Structure (SMILES),Ratio (Plasma),Ratio AUC [1]
CCCCCC1(CCCCC)Cc2c(cc(C(C)(C)C)c(O)c2C(C)(C)C)O1 [BO-653],0.23,1.23
Oc1nc(O)c2nc(O)[nH]c2n1 [URIC ACID],0.78,1.52
